Test results as given in patent EP4741374A1, “TREPROSTINIL DERIVATIVE, AND PREPARATION METHOD THEREFOR AND USE THEREOF” (CF PharmTech HongKong Limited, priority 2023, dated 2025).
Entries after “also recorded” stand apart in the source; their conditions may differ. Read-outs that look alike come from different tables or passages of the source.

Legend:
[1] = molecular target: T1, EP2 receptor (Homo sapiens, UniProt P43116); assay: Competitive binding to EP2 receptor against radiolabeled ligand 3H-PGE2; conditions: 8 concentrations from 10 µM, 10-fold dilutions
T1 construct: purchased Merck HTS185M
T1 sequence (P43116 whole entry): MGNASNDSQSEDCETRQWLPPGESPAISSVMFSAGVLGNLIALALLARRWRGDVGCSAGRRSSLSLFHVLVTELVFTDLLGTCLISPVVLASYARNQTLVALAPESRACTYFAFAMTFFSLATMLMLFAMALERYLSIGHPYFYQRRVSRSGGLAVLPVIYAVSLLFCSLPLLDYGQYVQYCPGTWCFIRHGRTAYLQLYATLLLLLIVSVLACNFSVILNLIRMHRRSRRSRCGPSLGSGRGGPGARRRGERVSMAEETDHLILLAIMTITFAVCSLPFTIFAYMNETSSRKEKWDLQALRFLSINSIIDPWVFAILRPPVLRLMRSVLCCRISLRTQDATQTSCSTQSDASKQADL
Method: This experiment was carried out in 96-well plates to evaluate the binding affinity of the compounds of the present invention (Ia-1, Ia-2 and Ia-3) to the prostaglandin EP2 receptor by testing their ability of competitive binding to the EP2 receptor with the radiolabeled ligand ^3H-PGE2. Treprostinil was used as control. MicroBeta2 was used to detect the number of ^3H captured, and Prism software was used to analyze data. The EP2 film (Merck, Cat# HT[…], batch number 2121326) was diluted with a buffer (50 mM Hepes, PH=7.4, 5 mM MgCl2, 1 mM CaCl2, 0.5% BSA) to a final concentration of 75 μg/mL. ^3H-PGE2 was diluted to 15 nM. Test compound and control compound solutions with an initial concentration of 10 μM were prepared, and subjected to 10-fold continuous gradient dilution, with a total of 8 concentrations for testing. 5%DMSO was used as a solvent control group. 1 μL of each compound solution was added into a corresponding position in the 96-well test plate, and each well was added with 50 μL of the EP2 film (about 3.75 μg/well), and added with 50 μ L of ^3H-PGE2. Then, the well plate was sealed, and incubated with shaking at 300 rpm at room temperature for 2 hours. After finishing the incubation, GF/C plates were filtered with Perkin Elmer Filtermate Harvester, and then each plate was washed with cold eluent for 4 times, and dried at 50°C for 1 hour. After drying, bottoms of wells of the filter plate were sealed with a PerkinElmer Unifilter-96 backing tape. 50 μL of Perkin Elmer Microscint O was added. The top of the filter plate was sealed with Perkin Elmer TopSeal-A sealing film. The number of ^3H captured was detected by MicroBeta2.

[2] = system: SD rats; assay: U46619-induced rat acute pulmonary arterial pressure rise model, airway nebulized administration (RVSP); format: in vivo; conditions: for antihypertensive effect: equimolar to 13.3 µg/kg TRE; for antihypertensive effect and duration, overall: 1 to 48 hours after airway nebulized administration
Text: U46619 was a stable analogue of thromboxane A2 (TXA2), which activated the downstream IP3 signal by binding to the thromboxane A2 receptor to promote vasoconstriction, platelet aggregation and the like. Influences of compound C16-TR and equimolar compounds Ia-1, Ia-2, Ia-3, R-11 and R-12 at different time points after airway nebulized administration on pulmonary hypertension of rats were studied by using the U46619-induced rat pulmonary arterial pressure rise mode, which were compared with that of equimolar TRE after airway nebulized administration.
Preparation of test sample: a required amount of compound TRE was taken and added into a sterile EP tube, and each tube was added with an appropriate amount of DMSO for dissolution to prepare a stock solution (100 mg/mL). Compounds C16-TR, la-1, la-2, Ia-3, R-11 and R-12 were added with appropriate amounts of DMSO and dissolved in the original bottles to prepare stock solutions (100 mg/mL), and then the stock solutions were transferred to sterile EP tubes. Each above stock solution was hermetically stored in the dark in a refrigerator at 4°C. When the stock solution was tested, an appropriate amount of stock solution was taken and added into a new sterile EP tube, and diluted with DMSO and 1×PBS to a target concentration (working solution) wherein the solvent was 3% DMSO/1×PBS.
Preparation of modeling agent: 900 µL of methyl acetate was added into an original bottle of U46619 and mixed evenly to prepare 1 mg/mL(1 µg/µL) stock solution, which was divided into 10 µL (1 µg/µL) per sterile EP tube and stored in a refrigerator at -20°C. On the day of modeling, the stock solution was taken out and balanced at room temperature and constant temperature, and each tube was added with an appropriate amount of 0.9% sodium chloride solution (sterile) to be diluted 20-fold, so as to prepare a working solution with a concentration of 50 ng/µL.
Airway nebulized administration dosages of compound TRE and the test compounds were equimolar quantities calculated based on TRE. The dosage of compound TRE group (n=3) was 13.3 µg/kg, the dosage of compound C16-TR group (n=5) was 20.9 µg/kg, the dosage of compound Ia-1 group (n=3) was 21.2 µg/kg, the dosage of compound Ia-2 group (n=6) was 22.1 µg/kg, the dosage of compound Ia-3 group (n=6) was 23.1 µg/kg, the dosage of compound R-11 group (n=3) was 21.9 µg/kg, and the dosage of compound R-12 group (n=3) was 21.7 µg/kg. There were also a model control group (n=1) and a solvent control group (n=3).
The SD rats were injected with U46619 (25 µg /kg) through the left jugular vein at different time points after airway nebulized administration, the peak value of RVSP rise after injection with U46619 was observed and recorded, and the inhibition percentage on the RVSP rise was calculated by comparing with the basic RVSP value. The rats in the model control group were administered with U46619 by intravenous injection immediately after successful catheterization and measurement of the basic RVSP. RVSP of all animals were detected by right cardiac catheterization, and respiratory conditions of the animals were observed generally. Table-2 Time points of administrating U46619 in various groups

[3] = inhaled treprostinil; cited from earlier work
[4] = molecular target: T2, IP receptor (Homo sapiens, UniProt P43119); assay: In-vitro agonist activity on IP receptor, FLIPR calcium test in IP/HEK293 cells; format: cell-based; conditions: 10 concentrations, 10-fold dilutions
T2 construct: host or cells: HEK293 (IP/HEK293 cell line)
T2 sequence (P43119 whole entry): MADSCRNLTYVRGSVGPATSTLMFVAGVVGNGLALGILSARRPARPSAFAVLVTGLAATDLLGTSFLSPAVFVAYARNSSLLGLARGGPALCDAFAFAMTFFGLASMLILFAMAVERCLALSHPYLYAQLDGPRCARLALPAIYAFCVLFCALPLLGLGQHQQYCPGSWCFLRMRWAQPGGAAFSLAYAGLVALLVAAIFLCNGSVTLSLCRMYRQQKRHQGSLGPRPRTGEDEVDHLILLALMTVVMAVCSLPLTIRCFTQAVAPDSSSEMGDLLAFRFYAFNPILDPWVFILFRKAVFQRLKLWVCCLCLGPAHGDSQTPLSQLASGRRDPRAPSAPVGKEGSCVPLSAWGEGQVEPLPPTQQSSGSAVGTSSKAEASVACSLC
Method: The specific method is as follows: The IP/HEK293 cell line was provided by WuXi AppTec (Shanghai) Co., Ltd. Well-grown IP/HEK293 cells were taken out from the incubator, the culture solution was aspirated, the cells were washed with D-PBS and digested with trypsin EDTA, and then added with a cell culture solution, and the cells were fully suspended by repeated pipetting. The cells were centrifuged at room temperature, the supernatant was aspirated, a culture medium was added, and the cells were resuspended by repeated pipetting with a sterile pipette. After counting living cells with Vi-CELL™, 20 µL (20,000 cells/well) of cell suspension was added to a 384-well cell culture plate and incubated in a 5% CO2 incubator at 37°C overnight. 1 mL of FLIPR test buffer was added with 77 mg of probenecid to prepare 250 mM probenecid solution. After thawing a bottle of 2XFluo-4 DirectTM (F10471), the bottle was added with 10 mL of FLIPR test buffer containing 500 uM AEBSF, and each 10 mL of Fluo-Direct was added with 0.2 mL of probenecid, with a final concentration of 2.5 mM. The mixture was vortexed and then allowed to stand in the dark for more than 5 minutes. Each compound was placed in a water bath at 25°C for 30 minutes. Then, these compounds were sequentially diluted 10-fold with Bravo, with a total of 10 concentrations, for testing. 750 nL of each compound was transferred to a 384-well compound plate with ECHO. Then, the compound plate was added with 30 µL of detection buffer. The 384-well cell culture plate was taken out from the incubator, the culture medium was discarded, and 20 µL of test buffer and 20 µL of 2X Fluo-4 DirectTM No-Wash loading buffer were added with a pipette. The cell culture plate was incubated in a 5% CO2 incubator at 37°C for 50 minutes and incubated at room temperature for 10 minutes. The cell culture plate, the compound plate and a tip box were placed into FLIPR, FLIPRTETRA test program was operated, 10 µL of reference compound and 10 µL of test compound were aspirated from the compound plate to the cell culture plate, fluorescence signals were read, and then data were processed. The data were analyzed by using Prism.

[5] = system: SD rats; assay: U46619-induced rat acute pulmonary arterial pressure rise model, low-dose airway nebulized administration (RVSP); format: in vivo; conditions: for Inhibition percentage on RVSP rise (%) (mean): 1 hour after low-dose airway nebulized administration (about 3 µg/kg, equimolar)
Text: In this experiment, airway nebulized administration dosages of the compounds were about 1/7 of airway nebulized administration dosages in Experimental Example 5. By using a U46619-induced rat acute pulmonary arterial pressure rise model, antihypertensive effects of the compounds of the present invention after airway nebulized administration were further verified by reducing the administration dosages.
A model construction method was the same as that described in Experimental Example 5. In this experiment, dosages of groups were as follows: the dosage of compound C16-TR group was 3 µg/kg, and the dosages of equimolar compounds Ia-1, Ia-2 and Ia-3 were 3.0 µg/kg, 3.2 µg/kg and 3.3 µg/kg respectively.
The SD rats were anesthetized and then administered by airway nebulization, and then the basic right ventricular systolic pressure (RVSP) was measured by right cardiac catheterization. The SD rats were intravenously injected with U46619 (25 µg /kg) at 1 hour after airway nebulized administration of each compound, a peak value of RVSP rise after injection with U46619 was observed and recorded, and the inhibition percentage on the RVSP rise was calculated by comparing with the basic RVSP value. The number of experimental animals in each group was 1~2.

[6] = cited from earlier work
[7] = system: porcine esterase; assay: Hydrolysis conversion rate of compounds into TRE mediated by porcine esterase; conditions: experiment (c); 0.2 mg/mL, 20 U porcine esterase, 38°C; 5 minutes to 2 hours
Method: This experiment was designed to evaluate the conversion rates of various compounds with different ester side chain structures into the TRE under the action of esterase.
The carbon number of the ester side chain of each compound was 10, wherein the alkyl side chains of R-05, R-06 and R-08 contained 1~3 oxygen atoms respectively. Each compound was dissolved in 20 mL of ethanol to prepare a 1 mg/ml test compound solution for later use. Then, 1 mL of the test compound solution was transferred into 4 mL of PBS aqueous solution to obtain 0.2 mg/mL test compound reaction solution. The reaction solution was added with 20 U (80 µL) of porcine esterase, shaken evenly and then incubated at 38°C. After a period of reaction, samples were taken according to the following time points: 10 minutes, 30 minutes, 1 hour and 2 hours. The conversion of the test compound into TRE was detected. The hydrolysis of each sample was calculated according to measured peak areas of the reactant and the product: [formula]
Sampling time points were: 20 minutes, 40 minutes, 1 hour and 2 hours.
Sampling time points were: 5 minutes, 15 minutes, 30 minutes, 1 hour and 2 hours.

[8] = system: subjects; conditions: cited from earlier work
[9] = 16 hours after airway nebulized administration

| binding to the EP2 receptor (competition with 3H-PGE2) [1] | agonist activity on IP receptor [4] | SMILES | inhibition percentage on the RVSP rise ([2]; 13.3 µg/kg, 16 minutes after airway nebulized administration) | half-life [3] | Inhibition percentage on RVSP rise (%) (mean) [5] | antihypertensive effects compared with C16-TR ([2]; 1 hour and 6 hours after airway nebulized administration, equimolar doses) | antihypertensive effect [2, 9] | antihypertensive effect and duration, overall ([2]; equimolar doses) | antihypertensive effect ([2]; 24 hours after airway nebulized administration) | antihypertensive effect ([5]; 1 hour after low-dose airway nebulized administration) | physical stability in solution on long-term storage ([6]; HFA propellant with ethanol and DSPE-PEG2000, storage >1 week) | solubility in HFA propellant ([6]; content of ethanol lower than 13%) | reaction of dissolved compound with the alcohol solvent ([6]; dissolved state, ethanol) | hydrolysis conversion rates (release of TRE) [7] | side effects ([8]; 170 µg/kg and 340 µg/kg) | side effects ([8]; low dose (54 µg/kg)) |
| --- | --- | --- | --- | --- | --- | --- | --- | --- | --- | --- | --- | --- | --- | --- | --- | --- |
| no detectable binding | no agonist activity | CCCCC[C@H](O)CC[C@@H]1[C@H]2Cc3cccc(OCC(=O)OCCCCCCOCCCCc4ccccc4)c3C[C@H]2C[C@H]1O [Compound Ia-1] | – | – | 67.67 | better than those of C16-TR | no antihypertensive effect | – | – | – | – | – | – | – | – | – |
| no detectable binding | no agonist activity | CCCCC[C@H](O)CC[C@@H]1[C@H]2Cc3cccc(OCC(=O)OCCCCCCCCCCOCCCCc4ccccc4)c3C[C@H]2C[C@H]1O [Compound Ia-3] | – | – | 83.49 | – | – | stronger antihypertensive effects than C16-TR and longer durations | obvious antihypertensive effects | – | – | – | – | – | – | – |
| – | – | CCCCCCCCCCCCCCCCOC(=O)COc1cccc2c1C[C@H]1C[C@@H](O)[C@H](CC[C@@H](O)CCCCC)[C@H]1C2 [Compound C16-TR, treprostinil palmitate] | – | – | 5.49 | – | no antihypertensive effect | long-term antihypertensive effects | – | no antihypertensive effect | could not remain soluble | could not be dissolved | generates ester exchange impurities with the alcohol solvent; also recorded: can react with ethanol, leading to substitution of the C16 ester by an ethyl ester | significantly prolong the hydrolysis conversion rates and release TRE slowly and steadily | developed cough and sore throat | no side effects such as cough or sore throat |

| SMILES | binding to the EP2 receptor (competition with 3H-PGE2) [1] | agonist activity on IP receptor [4] | inhibition percentage on the RVSP rise ([2]; 13.3 µg/kg, 16 minutes after airway nebulized administration) | half-life [3] | Inhibition percentage on RVSP rise (%) (mean) [5] | antihypertensive effects compared with C16-TR ([2]; 1 hour and 6 hours after airway nebulized administration, equimolar doses) | antihypertensive effect [2, 9] | antihypertensive effect and duration, overall ([2]; equimolar doses) | antihypertensive effect ([2]; 24 hours after airway nebulized administration) | antihypertensive effect ([5]; 1 hour after low-dose airway nebulized administration) | physical stability in solution on long-term storage ([6]; HFA propellant with ethanol and DSPE-PEG2000, storage >1 week) | solubility in HFA propellant ([6]; content of ethanol lower than 13%) | reaction of dissolved compound with the alcohol solvent ([6]; dissolved state, ethanol) | hydrolysis conversion rates (release of TRE) [7] | side effects ([8]; 170 µg/kg and 340 µg/kg) | side effects ([8]; low dose (54 µg/kg)) |
| --- | --- | --- | --- | --- | --- | --- | --- | --- | --- | --- | --- | --- | --- | --- | --- | --- |
| CCCCC[C@H](O)CC[C@@H]1[C@H]2Cc3cccc(OCC(=O)O)c3C[C@H]2C[C@H]1O [TRE, treprostinil] | competitively inhibited the binding of the ligand ^3H-PGE2 to the EP2 receptor in a concentration-dependent manner | strong agonist activity | about 39% | about 30 minutes | – | – | – | – | – | – | – | – | – | – | – | – |
